Drawing on the OligoGym collection, this text covers target mRNA knockdown for 19 substances.

HELM strings list units from the 5' end as sugar, base in round brackets, then linkage (d deoxyribose, r ribose, m 2'-O-methyl, p phosphodiester). Strings are as the collection lists them, not checked against the first reports. ss, as = sense and antisense strand; [s4r] = 4'-thioribose; [fl2r] = 2'-fluoro
Note: test system not given here.

For this series the following is noted: siRNA.
“RNA1{r(C)p.r(G)p.r(G)p.r(A)p.r(U)p.r(C)p.m(U)p.r(A)p.r(C)p.r(A)p.r(C)p.r(C)p.r(U)p.r(U)p.r(C)p.m(A)p.r(A)p.r(G)p.r(A)p.r(T)p.r(T)}|RNA2{r(U)p.r(C)p.r(U)p.m(U)p.r(G)p.r(A)p.r(A)p.r(G)p.r(G)p.m(U)p.r(G)p.m(U)p.r(A)p.r(G)p.r(A)p.r(U)p.r(C)p.r(C)p.r(G)p.r(T)p.r(T)}$$$RNA1{StrandType:ss}|RNA2{StrandType:as}$” gave a target mRNA knockdown of 42%.

In turn, “RNA1{r(C)p.r(G)p.r(G)p.r(A)p.r(U)p.r(C)p.m(U)p.r(A)p.r(C)p.r(A)p.r(C)p.r(C)p.r(U)p.r(U)p.r(C)p.r(A)p.r(A)p.r(G)p.r(A)p.r(T)p.r(T)}|RNA2{r(U)p.r(C)p.r(U)p.r(U)p.r(G)p.r(A)p.r(A)p.r(G)p.r(G)p.r(U)p.r(G)p.m(U)p.r(A)p.r(G)p.r(A)p.r(U)p.r(C)p.r(C)p.r(G)p.r(T)p.r(T)}$$$RNA1{StrandType:ss}|RNA2{StrandType:as}$” returned a target mRNA knockdown of 69%.

Regarding “RNA1{r(C)p.r(G)p.r(G)p.r(G)p.[fl2r](U)p.[fl2r](A)p.r(C)p.r(G)p.r(A)p.r(G)p.r(C)p.r(C)p.r(G)p.r(G)p.r(A)p.r(A)p.r(C)p.r(C)p.r(U)p.r(T)p.r(T)}|RNA2{r(A)p.r(G)p.r(G)p.r(U)p.r(U)p.r(C)p.r(C)p.r(G)p.r(G)p.r(C)p.r(U)p.r(C)p.r(G)p.[fl2r](U)p.r(A)p.r(C)p.r(C)p.r(C)p.r(G)p.r(T)p.r(T)}$$$RNA1{StrandType:ss}|RNA2{StrandType:as}$”, the target mRNA knockdown amounted to 68%.

Consider “RNA1{r(C)p.r(G)p.r(G)p.r(G)p.r(U)p.r(A)p.r(C)p.r(G)p.r(A)p.r(G)p.r(C)p.r(C)p.r(G)p.r(G)p.r(A)p.r(A)p.r(C)p.r(C)p.r(U)p.r(T)p.r(T)}|RNA2{r(A)p.r(G)p.r(G)p.r(U)p.r(U)p.r(C)p.r(C)p.r(G)p.r(G)p.r(C)p.r(U)p.r(C)p.r(G)p.[fl2r](U)p.r(A)p.r(C)p.r(C)p.r(C)p.r(G)p.r(T)p.r(T)}$$$RNA1{StrandType:ss}|RNA2{StrandType:as}$”, for which the target mRNA knockdown was 69%.

In the case of “RNA1{r(C)p.r(G)p.r(U)p.r(A)p.r(C)p.r(G)p.[s4r](C)p.[s4r](G)p.[s4r](G)p.[s4r](A)p.[s4r](A)p.[s4r](U)p.[s4r](A)p.r(C)p.r(U)p.r(U)p.r(C)p.r(G)p.r(A)p.r(T)p.r(T)}|RNA2{r(U)p.r(C)p.r(G)p.r(A)p.r(A)p.r(G)p.r(U)p.r(A)p.r(U)p.r(U)p.r(C)p.r(C)p.r(G)p.r(C)p.r(G)p.r(U)p.r(A)p.r(C)p.r(G)p.r(T)p.r(T)}$$$RNA1{StrandType:ss}|RNA2{StrandType:as}$”, the target mRNA knockdown is 87.4%.

For “RNA1{r(C)p.r(G)p.r(U)p.r(A)p.r(C)p.r(G)p.r(C)p.r(G)p.r(G)p.r(A)p.r(A)p.r(U)p.r(A)p.[s4r](C)p.[s4r](U)p.[s4r](U)p.[s4r](C)p.[s4r](G)p.[s4r](A)p.r(T)p.r(T)}|RNA2{[s4r](U)p.[s4r](C)p.[s4r](G)p.[s4r](A)p.[s4r](A)p.[s4r](G)p.r(U)p.r(A)p.r(U)p.r(U)p.r(C)p.r(C)p.r(G)p.r(C)p.r(G)p.r(U)p.r(A)p.r(C)p.r(G)p.r(T)p.r(T)}$$$RNA1{StrandType:ss}|RNA2{StrandType:as}$”, the target mRNA knockdown stood at 10.9%.

Consider “RNA1{r(C)p.r(G)p.r(U)p.r(A)p.r(C)p.r(G)p.r(C)p.r(G)p.r(G)p.r(A)p.r(A)p.r(U)p.r(A)p.[s4r](C)p.[s4r](U)p.[s4r](U)p.[s4r](C)p.[s4r](G)p.[s4r](A)p.r(T)p.r(T)}|RNA2{r(U)p.r(C)p.r(G)p.r(A)p.r(A)p.r(G)p.r(U)p.r(A)p.r(U)p.r(U)p.r(C)p.r(C)p.r(G)p.r(C)p.r(G)p.r(U)p.r(A)p.r(C)p.r(G)p.r(T)p.r(T)}$$$RNA1{StrandType:ss}|RNA2{StrandType:as}$”, for which the target mRNA knockdown amounted to 93.8%.

Consider “RNA1{r(C)p.r(G)p.r(U)p.r(A)p.r(C)p.r(G)p.r(C)p.r(G)p.r(G)p.r(A)p.r(A)p.r(U)p.r(A)p.m(C)p.m(U)p.m(U)p.m(C)p.m(G)p.m(A)p.r(T)p.r(T)}|RNA2{r(U)p.r(C)p.r(G)p.r(A)p.r(A)p.r(G)p.r(U)p.r(A)p.r(U)p.r(U)p.r(C)p.r(C)p.r(G)p.r(C)p.r(G)p.r(U)p.r(A)p.r(C)p.r(G)p.r(T)p.r(T)}$$$RNA1{StrandType:ss}|RNA2{StrandType:as}$”, for which the target mRNA knockdown worked out at 94.2%.

“RNA1{r(C)p.r(G)p.r(U)p.r(A)p.r(C)p.r(G)p.r(C)p.r(G)p.r(G)p.r(A)p.r(A)p.r(U)p.r(A)p.r(C)p.r(U)p.[s4r](U)p.[s4r](C)p.[s4r](G)p.[s4r](A)p.r(T)p.r(T)}|RNA2{[s4r](U)p.[s4r](C)p.[s4r](G)p.[s4r](A)p.r(A)p.r(G)p.r(U)p.r(A)p.r(U)p.r(U)p.r(C)p.r(C)p.r(G)p.r(C)p.r(G)p.r(U)p.r(A)p.r(C)p.r(G)p.r(T)p.r(T)}$$$RNA1{StrandType:ss}|RNA2{StrandType:as}$” registered a target mRNA knockdown of 35.1%.

The substance “RNA1{r(C)p.r(G)p.r(U)p.r(A)p.r(C)p.r(G)p.r(C)p.r(G)p.r(G)p.r(A)p.r(A)p.r(U)p.r(A)p.r(C)p.r(U)p.[s4r](U)p.[s4r](C)p.[s4r](G)p.[s4r](A)p.r(T)p.r(T)}|RNA2{r(U)p.r(C)p.r(G)p.r(A)p.r(A)p.r(G)p.r(U)p.r(A)p.r(U)p.r(U)p.r(C)p.r(C)p.r(G)p.r(C)p.r(G)p.[s4r](U)p.[s4r](A)p.[s4r](C)p.[s4r](G)p.r(T)p.r(T)}$$$RNA1{StrandType:ss}|RNA2{StrandType:as}$” had a target mRNA knockdown of 83.4%.

The substance “RNA1{r(C)p.r(G)p.r(U)p.r(A)p.r(C)p.r(G)p.r(C)p.r(G)p.r(G)p.r(A)p.r(A)p.r(U)p.r(A)p.r(C)p.r(U)p.[s4r](U)p.[s4r](C)p.[s4r](G)p.[s4r](A)p.r(T)p.r(T)}|RNA2{r(U)p.r(C)p.r(G)p.r(A)p.r(A)p.r(G)p.r(U)p.r(A)p.r(U)p.r(U)p.r(C)p.r(C)p.r(G)p.r(C)p.r(G)p.r(U)p.r(A)p.r(C)p.r(G)p.r(T)p.r(T)}$$$RNA1{StrandType:ss}|RNA2{StrandType:as}$” returned a target mRNA knockdown of 94.3%.

“RNA1{r(C)p.r(G)p.r(U)p.r(A)p.r(C)p.r(G)p.r(C)p.r(G)p.r(G)p.r(A)p.r(A)p.r(U)p.r(A)p.r(C)p.r(U)p.r(U)p.r(C)p.[s4r](G)p.[s4r](A)p.r(T)p.r(T)}|RNA2{[s4r](U)p.[s4r](C)p.r(G)p.r(A)p.r(A)p.r(G)p.r(U)p.r(A)p.r(U)p.r(U)p.r(C)p.r(C)p.r(G)p.r(C)p.r(G)p.r(U)p.r(A)p.r(C)p.r(G)p.r(T)p.r(T)}$$$RNA1{StrandType:ss}|RNA2{StrandType:as}$” displayed a target mRNA knockdown of 91.2%.

Consider “RNA1{r(C)p.r(G)p.r(U)p.r(A)p.r(C)p.r(G)p.r(C)p.r(G)p.r(G)p.r(A)p.r(A)p.r(U)p.r(A)p.r(C)p.r(U)p.r(U)p.r(C)p.[s4r](G)p.[s4r](A)p.r(T)p.r(T)}|RNA2{r(U)p.r(C)p.r(G)p.r(A)p.r(A)p.r(G)p.r(U)p.r(A)p.r(U)p.r(U)p.r(C)p.r(C)p.r(G)p.r(C)p.r(G)p.r(U)p.r(A)p.r(C)p.r(G)p.r(T)p.r(T)}$$$RNA1{StrandType:ss}|RNA2{StrandType:as}$”, for which the target mRNA knockdown was determined as 95.4%.

In turn, “RNA1{r(C)p.r(G)p.r(U)p.r(A)p.r(C)p.r(G)p.r(C)p.r(G)p.r(G)p.r(A)p.r(A)p.r(U)p.r(A)p.r(C)p.r(U)p.r(U)p.r(C)p.r(G)p.r(A)p.r(T)p.r(T)}|RNA2{[s4r](U)p.[s4r](C)p.[s4r](G)p.[s4r](A)p.[s4r](A)p.[s4r](G)p.[s4r](U)p.[s4r](A)p.[s4r](U)p.[s4r](U)p.[s4r](C)p.[s4r](C)p.[s4r](G)p.[s4r](C)p.[s4r](G)p.[s4r](U)p.[s4r](A)p.[s4r](C)p.[s4r](G)p.r(T)p.r(T)}$$$RNA1{StrandType:ss}|RNA2{StrandType:as}$” gave a target mRNA knockdown of 16.6%.

In turn, “RNA1{r(C)p.r(G)p.r(U)p.r(A)p.r(C)p.r(G)p.r(C)p.r(G)p.r(G)p.r(A)p.r(A)p.r(U)p.r(A)p.r(C)p.r(U)p.r(U)p.r(C)p.r(G)p.r(A)p.r(T)p.r(T)}|RNA2{[s4r](U)p.[s4r](C)p.[s4r](G)p.[s4r](A)p.[s4r](A)p.[s4r](G)p.r(U)p.r(A)p.r(U)p.r(U)p.r(C)p.r(C)p.r(G)p.[s4r](C)p.[s4r](G)p.[s4r](U)p.[s4r](A)p.[s4r](C)p.[s4r](G)p.r(T)p.r(T)}$$$RNA1{StrandType:ss}|RNA2{StrandType:as}$” came in with a target mRNA knockdown of 22.8%.

As to “RNA1{r(C)p.r(G)p.r(U)p.r(A)p.r(C)p.r(G)p.r(C)p.r(G)p.r(G)p.r(A)p.r(A)p.r(U)p.r(A)p.r(C)p.r(U)p.r(U)p.r(C)p.r(G)p.r(A)p.r(T)p.r(T)}|RNA2{[s4r](U)p.[s4r](C)p.[s4r](G)p.[s4r](A)p.[s4r](A)p.[s4r](G)p.r(U)p.r(A)p.r(U)p.r(U)p.r(C)p.r(C)p.r(G)p.r(C)p.r(G)p.r(U)p.r(A)p.r(C)p.r(G)p.r(T)p.r(T)}$$$RNA1{StrandType:ss}|RNA2{StrandType:as}$”, the target mRNA knockdown worked out at 70.9%.

Take “RNA1{r(C)p.r(G)p.r(U)p.r(A)p.r(C)p.r(G)p.r(C)p.r(G)p.r(G)p.r(A)p.r(A)p.r(U)p.r(A)p.r(C)p.r(U)p.r(U)p.r(C)p.r(G)p.r(A)p.r(T)p.r(T)}|RNA2{[s4r](U)p.[s4r](C)p.[s4r](G)p.[s4r](A)p.r(A)p.r(G)p.r(U)p.r(A)p.r(U)p.r(U)p.r(C)p.r(C)p.r(G)p.r(C)p.r(G)p.[s4r](U)p.[s4r](A)p.[s4r](C)p.[s4r](G)p.r(T)p.r(T)}$$$RNA1{StrandType:ss}|RNA2{StrandType:as}$”: the target mRNA knockdown is 20%.

Turning to “RNA1{r(C)p.r(G)p.r(U)p.r(A)p.r(C)p.r(G)p.r(C)p.r(G)p.r(G)p.r(A)p.r(A)p.r(U)p.r(A)p.r(C)p.r(U)p.r(U)p.r(C)p.r(G)p.r(A)p.r(T)p.r(T)}|RNA2{[s4r](U)p.[s4r](C)p.[s4r](G)p.[s4r](A)p.r(A)p.r(G)p.r(U)p.r(A)p.r(U)p.r(U)p.r(C)p.r(C)p.r(G)p.r(C)p.r(G)p.r(U)p.r(A)p.r(C)p.r(G)p.r(T)p.r(T)}$$$RNA1{StrandType:ss}|RNA2{StrandType:as}$”, the target mRNA knockdown is 76.7%.

The substance “RNA1{r(C)p.r(G)p.r(U)p.r(A)p.r(C)p.r(G)p.r(C)p.r(G)p.r(G)p.r(A)p.r(A)p.r(U)p.r(A)p.r(C)p.r(U)p.r(U)p.r(C)p.r(G)p.r(A)p.r(T)p.r(T)}|RNA2{[s4r](U)p.[s4r](C)p.r(G)p.r(A)p.r(A)p.r(G)p.[s4r](U)p.r(A)p.[s4r](U)p.[s4r](U)p.[s4r](C)p.[s4r](C)p.r(G)p.[s4r](C)p.r(G)p.[s4r](U)p.r(A)p.[s4r](C)p.r(G)p.r(T)p.r(T)}$$$RNA1{StrandType:ss}|RNA2{StrandType:as}$” showed a target mRNA knockdown of 27.5%.
